In patent publication US20260184675A1, “CHIRAL ISOMERIC SULFITE COMPOUND AND APPLICATION THEREOF” (Chengdu Hanova BioSciences Co., Ltd, priority 2024, published 2026):

How the values were obtained:
Type in all cases: in vivo
[1] = tested on: eggs of Tetranychus urticae; experiment: Effect on hatching of eggs of Tetranychus urticae, leaf disc method; conditions: 5 ppm; for Hatching rate (%): 5 days after insecticide delivery
Outline: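 This leaf disc test measured inhibition of Tetranychus urticae egg hatching. Eggs laid on Vicia faba discs were counted microscopically, and the discs were soaked for 10 seconds in compound at 5 ppm, with clear water as control. They were incubated under controlled temperature and humidity with strong indirect light, avoiding condensate. Hatched eggs, leaf damage and developmental abnormalities were recorded five days after delivery.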

[2] = tested on: pest eggs of Tetranychus cinnabarinus; experiment: Effect on hatching of pest eggs of Tetranychus cinnabarinus, leaf disc method; conditions: for inhibitory effect on the hatching of pest eggs of Tetranychus cinnabarinus (in words): 1 ppm; for Hatching rate (%): 7 days after insecticide delivery
Outline: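 Adult female mites laid eggs on 2.0 cm Vicia faba leaf discs for up to 36 h; discs with counted eggs were dipped 10 s in compound solution or water, then kept moist. Hatched eggs were counted 7 days after treatment and control effect was calculated by formula.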

[3] = tested on: eggs of Panonychus citri; experiment: Effect on hatching of eggs of Panonychus citri, leaf disc method; conditions: 1 ppm; for Hatching rate (%), Replicate 1 / Hatching rate (%), Replicate 2 / Hatching rate (%), Replicate 3 / Number of hatched larvae 5 days after insecticide delivery, Replicate 1 / Number of hatched larvae 5 days after insecticide delivery, Replicate 2 / Number of hatched larvae 5 days after insecticide delivery, Replicate 3: Panonychus citri eggs; for Hatching rate (%), Replicate 1 / Hatching rate (%), Replicate 2 / Hatching rate (%), Replicate 3: 5 days after delivery; for Number of hatched larvae 5 days after insecticide delivery, Replicate 1 / Number of hatched larvae 5 days after insecticide delivery, Replicate 2 / Number of hatched larvae 5 days after insecticide delivery, Replicate 3: leaf disc

Row | SMILES | inhibitory activity on the hatching of eggs of Tetranychus urticae (in words) [1] | Hatching rate (%) ([1]; Replicate 1) | Hatching rate (%) ([1]; Replicate 2) | Number of hatched larvae 5 days after insecticide delivery ([1]; Replicate 1) | Number of hatched larvae 5 days after insecticide delivery ([1]; Replicate 2) | inhibitory effect on the hatching of pest eggs of Tetranychus cinnabarinus (in words) [2] | inhibitory effect on the hatching of eggs of Panonychus citri (in words) [3] | Hatching rate (%), Replicate 1 [3] [%] | Hatching rate (%), Replicate 2 [3] [%] | Hatching rate (%), Replicate 3 [3] [%] | Number of hatched larvae 5 days after insecticide delivery, Replicate 1 [3] | Number of hatched larvae 5 days after insecticide delivery, Replicate 2 [3] | Number of hatched larvae 5 days after insecticide delivery, Replicate 3 [3] | Number of hatched larvae 7 days after insecticide delivery ([2]; 0.5 mg/L, Replicate 1) | Hatching rate (%) ([2]; 0.25 mg/L, Replicate 1) | Hatching rate (%) ([2]; 0.25 mg/L, Replicate 2) | Number of hatched larvae 7 days after insecticide delivery ([2]; 0.25 mg/L, Replicate 1) | Number of hatched larvae 7 days after insecticide delivery ([2]; 0.25 mg/L, Replicate 2) | Hatching rate (%) ([2]; 0.5 mg/L, Replicate 1) | Hatching rate (%) ([2]; 0.5 mg/L, Replicate 2) | also measured
1 | CC(C)(COc1ccc(Cl)cc1Cl)OS(=O)OCCF (centres unmarked) [Compound 10] | strong inhibitory activities | 1.94 | 1.35 | 2 | 1 | excellent inhibitory effects | good inhibitory effects | 1.01 | 0.00 | 0.00 | 1 | 0 | 0 | – | – | – | – | – | – | – | –
2 | CC(C)(COS(=O)OCCF)Oc1ccc(Cl)cc1Cl (centres unmarked) [Compound 10′] | strong inhibitory activities | 1.18 | 1.10 | 1 | 1 | excellent inhibitory effects | good inhibitory effects | 0.00 | 0.73 | 0.92 | 0 | 1 | 1 | 47 | – | – | – | – | – | – | –
3 | CCC(COc1ccc(Cl)cc1Cl)OS(=O)OCCF (centres unmarked) [Compound 19] | strong inhibitory activities | 0.00 | 1.09 | 0 | 1 | excellent inhibitory effects | good inhibitory effects | 0.00 | 0.00 | 0.00 | 0 | 0 | 0 | 32 | 72.22 | 69.74 | 15 | 23 | 34.69 | 30.49 | Number of hatched larvae 7 days after insecticide delivery ([2]; 0.5 mg/L, Replicate 2): 57; Hatching rate (%) ([2]; 1 mg/L, Replicate 1): 0.00%; Hatching rate (%) ([2]; 1 mg/L, Replicate 2): 0.00%; Number of hatched larvae 7 days after insecticide delivery ([2]; 1 mg/L, Replicate 1): 71; Number of hatched larvae 7 days after insecticide delivery ([2]; 1 mg/L, Replicate 2): 65
4 | CCC(COS(=O)OCCF)Oc1ccc(Cl)cc1Cl (centres unmarked) [Compound 19′] | strong inhibitory activities | 1.14 | 1.92 | 1 | 2 | excellent inhibitory effects | good inhibitory effects | 0.00 | 0.00 | 0.00 | 0 | 0 | 0 | 47 | 70.21 | 73.24 | 14 | 19 | 34.72 | 34.43 | Number of hatched larvae 7 days after insecticide delivery ([2]; 0.5 mg/L, Replicate 2): 40; Hatching rate (%) ([2]; 1 mg/L, Replicate 1): 1.89%; Hatching rate (%) ([2]; 1 mg/L, Replicate 2): 0.00%; Number of hatched larvae 7 days after insecticide delivery ([2]; 1 mg/L, Replicate 1): 52; Number of hatched larvae 7 days after insecticide delivery ([2]; 1 mg/L, Replicate 2): 63
